According to patent publication US20120035125A1, “FULVIC ACID IN COMBINATION WITH FLUCONAZOLE OR AMPHOTERICIN B FOR THE TREATMENT OF FUNGAL INFECTIONS” (Natracine UK Limited, priority 2009, published 2012):
Read-outs that look alike come from different tables or passages of the source.

Legend:
Assay type in all cases: cell-based
Candida parapsilosis = assay: In vitro susceptibility, fluconazole and CHD-FA, main experiment; conditions: Lodderomyces parapsilosis, read-out: Fluconazole MIC (mg/L) alone
Protocol: (§1) Sterile plastic, disposable, microtitration plates with 96 flat-bottom wells were used.
(§2) a) Column 1 of the microtitration tray was filled with 100 μL of sterile water containing four times the final drug concentration (512 mg/L fluconazole).
(§3) b) Columns 2-12 were filled with 50 μL of distilled water
(§4) c) 50 μL amounts were taken from wells in column 1 and diluted two-fold by transferring them to column 2 with a multichannel pipette (±2% coefficient of variation). 50 μL samples were then removed from column 2 and transferred to column 3, and so on through to column 10. The last 50 μL of diluted drug is then discarded. Thus, each well in columns 1-10 will contain 50 μL of water containing four times the final antifungal drug concentrations.
(§5) Stock solutions of CHD-FA were produced containing 4% and 2% (also 1% and 0.5% for Candida parapsilosis and Candida krusei). 100 μL of the diluted CHD-FA was added to microtitration trays in so that rows contain final dilutions of: • For Candida albicans and tropicalis: 1st row of pair 0.5% CHD-FA, 2nd row of pair solvent only • For Candida glabrata: 1st row of triplet 1% CHD-FA, 2nd row of triplet 0.5% CHD-FA, 3rd row of triplet solvent only • For Candida parapsilosis and Candida krusei rows included 2%, 1%, 0.5%, 0.25 and 0.125% CHD-FA and a row of solvent only.
(§6) All the above concentrations were mixed with fixed concentrations of fluconazole at 128, 32, 8, 2, 0.5 mg/L and solvent for synergy/antagonism assessment.
(§7) 50 μL of the diluted Candida spp suspension in 4×RPMI was added to all wells. This produces a well containing 200 μL final volume (made up of 50 μL diluted fluconazole, 100 μL diluted CHD-FA or diluent, 50 μL of 4×RPMI containing Candida)
(§8) All plates were incubated at 37° C. in air in a darkened incubator.
(§9) Plates were read visually with the endpoint taken as the lowest concentration of drug that inhibited growth by 50% of that of the drug free control.

Candida krusei = assay: as above
Protocol: as §1, §2, §3, §4, §5, §6, §7, §8, §9

Candida albicans [1] = assay: In vitro susceptibility, fluconazole and CHD-FA, preliminary experiment (5 clinical isolates); conditions: read-out: Minimum Inhibitory Concentrations of Fluconazole
Protocol: (§10) Each culture was grown on Sabouraud agar at 37° C. for 48 h to ensure purity.
Clinical Microbiology and Infection 9:1-VIII.)
a) All yeasts were cultured in ambient air at 35-37° C. on recovery medium (Sabouraud dextrose agar) for 18-24 h before testing.
b) The inoculum was prepared by picking five distinct colonies from 18 to 24 h cultures and suspending them in 5 mL of sterile distilled water.
c) The inoculum was completely suspended by vigorous shaking on a vortex mixer for 15 s. The cell density was adjusted to the density of a 0.5 McFarland standard by adding sterile distilled water and measuring absorbance in a spectrophotometer at a wavelength of 530 nm. This gave a yeast suspension of 1-5×10^6 cfu/mL. A working suspension was prepared by a further dilution of 1 in 10 further in 4×RPMI to give […] (The RPMI medium used in the plates was prepared at 4×the final strength to allow for a 75% dilution once the inoculum and diluted CHD-FA was added).
as §1, §2, §3, §4
Stock solutions of CHD-FA were produced containing 4%, 2%, 1%, 0.5% and 0.25% of the native compound. 100 μL of the diluted CHD-FA was added to microtitration trays in so that row A contains a final dilution of 2% row B, 1%, row C 0.5%, row D 0.25% row E 0.125% and row F diluent only.
50 μL of the diluted Candida albicans suspension in 4×RPMI was added to all cells. This produces a well containing 200 μL final volume (made up of 50 μL diluted fluconazole, 100 μL diluted CHD-FA or diluent, 50 μL of 4×RPMI containing Candida albicans)
as §8, §9
The pH of CHD-FA was adjusted to pH7.0 using 10M NaOH solution (the ideal pH for fluconazole activity). […] Susceptibility assays were repeated as above.

Candida albicans [2] = assay: In vitro susceptibility, fluconazole and CHD-FA, main experiment
Protocol: as §10, §1, §2, §3, §4, §5, §6, §7, §8, §9

Candida tropicalis = assay: as above
Protocol: as §10, §1, §2, §3, §4, §5, §6, §7, §8, §9

Candida glabrata = assay: as above
Protocol: as §10, §1, §2, §3, §4, §5, §6, §7, §8, §9

OC(Cn1cncn1)(Cn1cncn1)c1ccc(F)cc1F [Fluconazole, fluconazole]
0.5 mg/L: MIC (Candida albicans [2]; C. albicans isolate 11, read-out: Fluconazole MIC (mg/L) alone) | MIC (Candida albicans [2]; C. albicans isolate 13, read-out: Fluconazole MIC (mg/L) alone) | MIC (Candida albicans [2]; C. albicans isolate 19, read-out: Fluconazole MIC (mg/L) alone)
1 mg/L: MIC (Candida albicans [2]; C. albicans isolate 23, read-out: Fluconazole MIC (mg/L) alone) | MIC (Candida albicans [2]; C. albicans isolate 24, read-out: Fluconazole MIC (mg/L) alone)
32 mg/L: Fluconazole MIC (mg/L) alone (Candida krusei; C. krusei isolate 1) | Fluconazole MIC (mg/L) alone (Candida krusei; C. krusei isolate 2) | Fluconazole MIC (mg/L) alone (Candida krusei; C. krusei isolate 4) | Fluconazole MIC (mg/L) alone (Candida krusei; C. krusei isolate 5) | MIC (Candida krusei; Pichia kudriavzevii, C. krusei isolate 3, read-out: Fluconazole MIC (mg/L) alone) | MIC (Candida albicans [2]; C. albicans isolate 14, read-out: Fluconazole MIC (mg/L) alone)
8 mg/L: MIC (Candida parapsilosis; C. parapsilosis isolate 1) | MIC (Candida parapsilosis; C. parapsilosis isolate 3) | MIC (Candida parapsilosis; C. parapsilosis isolate 4) | MIC (Candida parapsilosis; C. parapsilosis isolate 5) | MIC (Candida albicans [2]; C. albicans isolate 2, read-out: Fluconazole MIC (mg/L) alone)
128 mg/L: MIC (Candida albicans [2]; C. albicans isolate 1, read-out: Fluconazole MIC (mg/L) alone) | MIC (Candida albicans [2]; C. albicans isolate 5, read-out: Fluconazole MIC (mg/L) alone) | MIC (Candida albicans [2]; C. albicans isolate 7, read-out: Fluconazole MIC (mg/L) alone) | MIC (Candida albicans [2]; C. albicans isolate 8, read-out: Fluconazole MIC (mg/L) alone) | MIC (Candida albicans [2]; C. albicans isolate 10, read-out: Fluconazole MIC (mg/L) alone)
2 mg/L: MIC (Candida parapsilosis; C. parapsilosis isolate 2) | MIC (Candida albicans [2]; C. albicans isolate 15, read-out: Fluconazole MIC (mg/L) alone) | MIC (Candida albicans [2]; C. albicans isolate 22, read-out: Fluconazole MIC (mg/L) alone)
>128 mg/L: Fluconazole MIC (mg/L) alone (Candida glabrata; C. glabrata isolate 1) | Fluconazole MIC (mg/L) alone (Candida glabrata; C. glabrata isolate 2) | Fluconazole MIC (mg/L) alone (Candida glabrata; C. glabrata isolate 3) | Fluconazole MIC (mg/L) alone (Candida glabrata; C. glabrata isolate 5) | Fluconazole MIC (mg/L) alone (Candida glabrata; C. glabrata isolate 6) | Fluconazole MIC (mg/L) alone (Candida glabrata; C. glabrata isolate 7) | Fluconazole MIC (mg/L) alone (Candida glabrata; C. glabrata isolate 8) | Fluconazole MIC (mg/L) alone (Candida glabrata; C. glabrata isolate 9) | Fluconazole MIC (mg/L) alone (Candida glabrata; C. glabrata isolate 10) | Fluconazole MIC (mg/L) alone (Candida glabrata; C. glabrata isolate 11)
16 µg/mL: MIC (Candida albicans [1]; Candida Strain 2, Solvent (no CHD-FA)) | MIC (Candida albicans [1]; Candida Strain 3, Solvent (no CHD-FA)) | MIC (Candida albicans [1]; Candida Strain 5, Solvent (no CHD-FA))
128 µg/mL: MIC (Candida albicans [1]; Candida Strain 1, Solvent (no CHD-FA))
> 64 mg/L: MIC (Candida tropicalis; C. tropicalis isolate 2, read-out: Fluconazole MIC (mg/L) alone)
16 mg/L: MIC (Candida albicans [2]; C. albicans isolate 3, read-out: Fluconazole MIC (mg/L) alone) | MIC (Candida tropicalis; C. tropicalis isolate 1, read-out: Fluconazole MIC (mg/L) alone) | MIC (Candida tropicalis; C. tropicalis isolate 3, read-out: Fluconazole MIC (mg/L) alone) | MIC (Candida tropicalis; C. tropicalis isolate 4, read-out: Fluconazole MIC (mg/L) alone)
64 mg/L: MIC (Candida albicans [2]; C. albicans isolate 9, read-out: Fluconazole MIC (mg/L) alone) | MIC (Candida albicans [2]; C. albicans isolate 12, read-out: Fluconazole MIC (mg/L) alone) | MIC (Candida albicans [2]; C. albicans isolate 16, read-out: Fluconazole MIC (mg/L) alone)
> 128 mg/L: MIC (Candida albicans [2]; C. albicans isolate 6, read-out: Fluconazole MIC (mg/L) alone) | MIC (Candida albicans [2]; C. albicans isolate 17, read-out: Fluconazole MIC (mg/L) alone) | MIC (Candida albicans [2]; C. albicans isolate 18, read-out: Fluconazole MIC (mg/L) alone) | MIC (Candida albicans [2]; C. albicans isolate 20, read-out: Fluconazole MIC (mg/L) alone) | MIC (Candida albicans [2]; C. albicans isolate 25, read-out: Fluconazole MIC (mg/L) alone) | MIC (Candida glabrata; Nakaseomyces glabratus, C. glabrata isolate 4, read-out: Fluconazole MIC (mg/L) alone)
32 µg/mL: MIC (Candida albicans [1]; Candida Strain 4, Solvent (no CHD-FA))
4 mg/L: MIC (Candida albicans [2]; C. albicans isolate 4, read-out: Fluconazole MIC (mg/L) alone) | MIC (Candida albicans [2]; C. albicans isolate 21, read-out: Fluconazole MIC (mg/L) alone)
